From patent US20180290977A1, “KDM4 INHIBITORS” (Albert-Ludwigs-University Freiburg, priority 2017, published 2018)
Where two headings read alike, the source gives them in different places.

Experiments:
Test in all cases: KDM demethylase inhibition (IC50)
Format in all cases: biochemical
[1] = target: T1, KDM4A (Homo sapiens, UniProt O75164)
T1 sequence (O75164 1-1064): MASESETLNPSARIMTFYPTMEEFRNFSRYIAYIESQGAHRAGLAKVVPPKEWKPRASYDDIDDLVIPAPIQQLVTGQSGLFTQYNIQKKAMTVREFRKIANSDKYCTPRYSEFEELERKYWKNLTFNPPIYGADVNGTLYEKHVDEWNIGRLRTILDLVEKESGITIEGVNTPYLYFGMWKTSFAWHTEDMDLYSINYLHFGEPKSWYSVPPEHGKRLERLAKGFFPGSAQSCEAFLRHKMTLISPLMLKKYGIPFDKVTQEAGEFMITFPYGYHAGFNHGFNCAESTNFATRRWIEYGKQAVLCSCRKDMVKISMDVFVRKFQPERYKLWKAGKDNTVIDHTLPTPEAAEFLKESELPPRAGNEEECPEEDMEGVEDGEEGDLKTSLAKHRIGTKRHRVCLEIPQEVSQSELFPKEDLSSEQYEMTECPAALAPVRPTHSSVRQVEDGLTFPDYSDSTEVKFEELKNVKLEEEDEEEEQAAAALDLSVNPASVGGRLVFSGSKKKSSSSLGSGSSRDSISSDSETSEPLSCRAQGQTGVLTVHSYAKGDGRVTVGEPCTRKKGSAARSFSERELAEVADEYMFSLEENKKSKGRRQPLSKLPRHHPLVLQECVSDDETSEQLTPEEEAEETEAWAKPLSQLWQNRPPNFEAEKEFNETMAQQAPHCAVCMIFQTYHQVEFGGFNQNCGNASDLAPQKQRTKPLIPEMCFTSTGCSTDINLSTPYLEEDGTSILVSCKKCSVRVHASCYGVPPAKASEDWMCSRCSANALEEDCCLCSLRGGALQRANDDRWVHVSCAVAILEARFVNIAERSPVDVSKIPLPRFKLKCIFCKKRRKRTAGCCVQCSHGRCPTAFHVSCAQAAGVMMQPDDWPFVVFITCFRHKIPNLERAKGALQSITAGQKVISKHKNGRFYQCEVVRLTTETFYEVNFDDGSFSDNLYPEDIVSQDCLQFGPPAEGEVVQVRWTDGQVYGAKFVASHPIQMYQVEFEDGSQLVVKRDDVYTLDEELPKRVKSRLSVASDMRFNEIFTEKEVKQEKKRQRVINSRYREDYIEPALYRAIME

[2] = target: T2, KDM4D (Homo sapiens, UniProt Q6B0I6)
T2 sequence (Q6B0I6 1-523): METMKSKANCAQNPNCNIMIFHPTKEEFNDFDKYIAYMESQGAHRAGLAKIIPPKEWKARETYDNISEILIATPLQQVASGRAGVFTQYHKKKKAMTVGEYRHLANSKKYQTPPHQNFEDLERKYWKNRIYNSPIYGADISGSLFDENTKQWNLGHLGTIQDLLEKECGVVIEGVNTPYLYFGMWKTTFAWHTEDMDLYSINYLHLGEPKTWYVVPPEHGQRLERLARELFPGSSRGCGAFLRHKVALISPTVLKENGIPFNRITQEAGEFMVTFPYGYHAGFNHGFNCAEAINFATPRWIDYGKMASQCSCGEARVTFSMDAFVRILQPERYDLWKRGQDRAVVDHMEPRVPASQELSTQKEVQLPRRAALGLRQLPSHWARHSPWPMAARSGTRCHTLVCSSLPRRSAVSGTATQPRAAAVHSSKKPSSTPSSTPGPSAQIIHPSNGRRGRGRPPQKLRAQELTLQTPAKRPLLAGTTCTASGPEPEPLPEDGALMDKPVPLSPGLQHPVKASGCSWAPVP

[3] = target: KDM5B (Homo sapiens, UniProt Q9UGL1)
[4] = target: KDM6A (Homo sapiens, UniProt O15550)
[5] = target: T3, KDM4B (Homo sapiens, UniProt O94953)
T3 sequence (O94953 1-1096): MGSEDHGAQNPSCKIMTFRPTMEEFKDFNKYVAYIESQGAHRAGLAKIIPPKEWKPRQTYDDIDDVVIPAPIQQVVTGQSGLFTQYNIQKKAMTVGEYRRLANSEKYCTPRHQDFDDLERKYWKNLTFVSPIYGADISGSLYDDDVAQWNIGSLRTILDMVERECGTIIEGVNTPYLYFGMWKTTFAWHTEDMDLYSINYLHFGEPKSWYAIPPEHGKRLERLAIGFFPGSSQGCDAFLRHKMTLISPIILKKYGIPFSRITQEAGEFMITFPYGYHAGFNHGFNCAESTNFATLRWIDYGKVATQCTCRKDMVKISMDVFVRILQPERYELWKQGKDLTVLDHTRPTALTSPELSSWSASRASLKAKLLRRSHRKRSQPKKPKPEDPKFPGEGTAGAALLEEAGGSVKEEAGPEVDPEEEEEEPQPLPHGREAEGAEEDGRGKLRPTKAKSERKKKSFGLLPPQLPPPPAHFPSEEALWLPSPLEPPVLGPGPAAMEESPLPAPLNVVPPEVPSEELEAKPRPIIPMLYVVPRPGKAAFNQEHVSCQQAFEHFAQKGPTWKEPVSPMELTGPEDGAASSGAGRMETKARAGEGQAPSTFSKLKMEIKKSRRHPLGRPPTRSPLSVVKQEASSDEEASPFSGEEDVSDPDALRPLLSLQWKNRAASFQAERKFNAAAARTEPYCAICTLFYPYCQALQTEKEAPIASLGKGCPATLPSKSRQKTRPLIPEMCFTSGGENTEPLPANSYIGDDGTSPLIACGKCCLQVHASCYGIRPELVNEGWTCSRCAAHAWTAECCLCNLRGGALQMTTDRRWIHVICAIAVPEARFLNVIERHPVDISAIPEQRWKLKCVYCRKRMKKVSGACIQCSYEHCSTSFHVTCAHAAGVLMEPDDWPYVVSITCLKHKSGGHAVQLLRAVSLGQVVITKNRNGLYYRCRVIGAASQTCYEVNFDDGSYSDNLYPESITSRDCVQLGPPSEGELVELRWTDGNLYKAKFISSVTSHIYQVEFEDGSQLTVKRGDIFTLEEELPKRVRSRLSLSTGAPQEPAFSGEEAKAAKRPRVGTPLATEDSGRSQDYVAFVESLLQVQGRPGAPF

[6] = read-out: IC50, demethylase activity

Chain of KDM5B (Q9UGL1 whole entry): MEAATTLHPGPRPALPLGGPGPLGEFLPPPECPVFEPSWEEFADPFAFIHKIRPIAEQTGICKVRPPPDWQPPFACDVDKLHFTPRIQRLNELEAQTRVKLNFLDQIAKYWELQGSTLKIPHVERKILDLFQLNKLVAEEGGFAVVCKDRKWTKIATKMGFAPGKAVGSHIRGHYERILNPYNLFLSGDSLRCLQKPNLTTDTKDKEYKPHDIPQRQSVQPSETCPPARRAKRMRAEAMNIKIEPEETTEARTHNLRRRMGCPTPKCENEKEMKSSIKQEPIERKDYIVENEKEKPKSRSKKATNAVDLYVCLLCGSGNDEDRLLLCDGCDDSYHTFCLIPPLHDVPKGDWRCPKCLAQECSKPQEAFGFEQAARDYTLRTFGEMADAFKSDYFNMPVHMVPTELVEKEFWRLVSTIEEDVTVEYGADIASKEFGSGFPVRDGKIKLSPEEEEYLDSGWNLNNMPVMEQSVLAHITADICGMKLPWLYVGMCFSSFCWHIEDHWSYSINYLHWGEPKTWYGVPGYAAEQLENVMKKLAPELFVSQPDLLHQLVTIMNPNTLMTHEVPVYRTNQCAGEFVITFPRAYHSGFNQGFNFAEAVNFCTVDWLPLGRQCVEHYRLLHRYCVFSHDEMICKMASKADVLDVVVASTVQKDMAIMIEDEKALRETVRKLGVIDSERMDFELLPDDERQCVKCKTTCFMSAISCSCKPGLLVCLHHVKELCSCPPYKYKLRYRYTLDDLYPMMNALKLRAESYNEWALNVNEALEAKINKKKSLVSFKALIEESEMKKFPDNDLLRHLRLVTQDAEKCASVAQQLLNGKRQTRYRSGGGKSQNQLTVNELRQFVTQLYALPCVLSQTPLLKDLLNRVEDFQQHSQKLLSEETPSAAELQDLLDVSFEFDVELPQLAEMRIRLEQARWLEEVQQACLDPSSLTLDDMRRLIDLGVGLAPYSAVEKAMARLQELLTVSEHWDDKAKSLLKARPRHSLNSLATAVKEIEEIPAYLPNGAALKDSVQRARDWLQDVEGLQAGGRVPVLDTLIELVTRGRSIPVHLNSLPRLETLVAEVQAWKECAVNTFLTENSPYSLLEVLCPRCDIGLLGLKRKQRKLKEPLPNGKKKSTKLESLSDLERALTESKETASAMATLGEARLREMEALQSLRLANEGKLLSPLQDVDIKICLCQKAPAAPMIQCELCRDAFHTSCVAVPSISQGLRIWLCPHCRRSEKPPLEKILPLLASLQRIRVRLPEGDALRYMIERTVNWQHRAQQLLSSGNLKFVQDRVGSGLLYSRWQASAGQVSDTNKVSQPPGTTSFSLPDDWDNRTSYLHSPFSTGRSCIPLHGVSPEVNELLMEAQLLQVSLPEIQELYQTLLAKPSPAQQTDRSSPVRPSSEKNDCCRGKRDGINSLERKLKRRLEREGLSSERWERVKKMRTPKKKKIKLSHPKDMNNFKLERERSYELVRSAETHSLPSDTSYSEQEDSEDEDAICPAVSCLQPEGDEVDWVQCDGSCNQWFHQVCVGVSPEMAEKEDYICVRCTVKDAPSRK
Chain of KDM6A (O15550 whole entry): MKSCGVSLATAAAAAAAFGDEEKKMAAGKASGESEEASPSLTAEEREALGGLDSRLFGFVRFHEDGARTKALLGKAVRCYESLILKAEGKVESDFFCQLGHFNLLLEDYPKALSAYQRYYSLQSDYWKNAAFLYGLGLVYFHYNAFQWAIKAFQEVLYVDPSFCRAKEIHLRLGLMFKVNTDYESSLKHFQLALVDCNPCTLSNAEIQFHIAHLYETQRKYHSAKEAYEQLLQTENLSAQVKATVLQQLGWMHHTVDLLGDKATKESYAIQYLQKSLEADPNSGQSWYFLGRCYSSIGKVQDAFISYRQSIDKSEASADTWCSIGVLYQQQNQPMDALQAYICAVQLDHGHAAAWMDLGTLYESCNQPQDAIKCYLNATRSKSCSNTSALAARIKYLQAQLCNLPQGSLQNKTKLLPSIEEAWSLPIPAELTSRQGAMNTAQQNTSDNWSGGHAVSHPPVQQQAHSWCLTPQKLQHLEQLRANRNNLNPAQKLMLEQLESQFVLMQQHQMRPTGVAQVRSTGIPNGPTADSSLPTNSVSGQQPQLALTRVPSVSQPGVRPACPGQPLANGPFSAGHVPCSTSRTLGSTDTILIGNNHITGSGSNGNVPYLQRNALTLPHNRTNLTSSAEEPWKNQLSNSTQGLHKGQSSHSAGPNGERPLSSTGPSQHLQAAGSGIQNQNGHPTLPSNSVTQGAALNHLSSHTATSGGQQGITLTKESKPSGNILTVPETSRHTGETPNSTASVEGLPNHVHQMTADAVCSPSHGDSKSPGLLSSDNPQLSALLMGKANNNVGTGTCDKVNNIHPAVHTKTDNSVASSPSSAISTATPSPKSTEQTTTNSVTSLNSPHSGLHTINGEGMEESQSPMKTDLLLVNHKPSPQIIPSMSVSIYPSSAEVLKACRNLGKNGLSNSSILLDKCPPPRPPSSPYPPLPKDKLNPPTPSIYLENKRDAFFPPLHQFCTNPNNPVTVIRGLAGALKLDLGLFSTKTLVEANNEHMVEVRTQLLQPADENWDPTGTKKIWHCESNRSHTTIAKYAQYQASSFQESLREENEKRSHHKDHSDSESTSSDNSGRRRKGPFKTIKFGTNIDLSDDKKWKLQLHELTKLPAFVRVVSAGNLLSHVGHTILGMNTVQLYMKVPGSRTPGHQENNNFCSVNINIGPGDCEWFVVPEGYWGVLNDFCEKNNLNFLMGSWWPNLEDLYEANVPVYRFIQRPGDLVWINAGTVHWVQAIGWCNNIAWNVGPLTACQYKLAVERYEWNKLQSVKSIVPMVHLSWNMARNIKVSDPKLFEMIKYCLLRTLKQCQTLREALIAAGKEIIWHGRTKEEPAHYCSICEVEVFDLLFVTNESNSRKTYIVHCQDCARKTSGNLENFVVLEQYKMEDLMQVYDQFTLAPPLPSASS

`CN(c1ccccc1)c1ccc2c(c1)CCC[C@H]2CNc1cnccc1C(=O)O` [Compound I, 3-({[(1R)-6-[methyl(phenyl)amino]-1,2,3,4-tetrahydronaphthalen-1-yl]methyl}amino)pyridine-4-carboxylic Acid] gave an IC50 ([1]; read-out: Compound I IC50) of 104 nM, an IC50 [1, 6] of under 105 nM and an IC50 ([2]; read-out: Compound I IC50) of 104 nM. The IC50 [2, 6] was under 105 nM, the “effect on the demethylase activity of KDM5B” value [3] was “weak effect” and the IC50 ([3]; read-out: Compound I IC50, KDM5B) was 750 nM. For the same compound, the IC50 [4] was over 10 µM, the IC50 ([5]; read-out: Compound I IC50) was 56 nM and the IC50 [5, 6] was under 105 nM.
